{"source": "the supplement of paper PMC11208160", "test": "recombinant barcode read abundance after kanamycin selection (control-corrected) (log10(CPM+1)); higher = more efficient recombination; sequences stand for … in AGTGCAGAGAAAATCGGCCAGTTTTCTCTGCCTGCAGTCCGCATGCCGT…ATTTATGCAGCGGACTGCCTTTCTCCCAAAGTGATAAACCGGACAGTATCATGGACCGGTTTTCCCGGTAATCCGTATTTGCAAGGTTGGTTTCACT; site = the 11-nt target", "method_in_brief": "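Targets were screened in pooled form in E. coli against IS621 bridge RNA target-binding loops. Recombination efficiency is based on barcode counts at recombinant junctions in counts per million, averaged and corrected for the control. Numbers are shown as log10(CPM+1), with duplicate plates on chloramphenicol/ampicillin LB agar (control) or chloramphenicol/ampicillin/kanamycin with 0.1 mM IPTG.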"}
{"sequence": "GAGTCCAGGTGGGTTCTAACCTGTTGCGTCC [GAGTCCACTAC_LTGcore_GG_RTGcore_GG] (site GAGTCCACTAC) (LTG core: GG, RTG core: GG)", "values": [{"measurement": "recombinant barcode read abundance (log10)", "value": 0.0822}]}
{"sequence": "GAGTCCATATGGGTTCTAACCTGTTGCGTTA [GAGTCCACTAC_LTGcore_TA_RTGcore_TA] (site GAGTCCACTAC) (LTG core: TA, RTG core: TA)", "values": [{"measurement": "recombinant barcode read abundance (log10)", "value": 0.0207}]}
{"sequence": "GAGTCCATCTGGGTTCTAACCTGTTGCGTAG [GAGTCCACTAC_LTGcore_TC_RTGcore_CT] (site GAGTCCACTAC) (LTG core: TC, RTG core: CT)", "values": [{"measurement": "recombinant barcode read abundance (log10)", "value": 0.0202}]}
{"sequence": "GAGTCCATCTGGGTTCTAACCTGTTGCGTGA [GAGTCCACTAC_LTGcore_TC_RTGcore_TC] (site GAGTCCACTAC) (LTG core: TC, RTG core: TC)", "values": [{"measurement": "recombinant barcode read abundance (log10)", "value": 0.0654}]}
{"sequence": "GAGTCCATTTGGGTTCTAACCTGTTGCGTAG [GAGTCCACTAC_LTGcore_TT_RTGcore_CT] (site GAGTCCACTAC) (LTG core: TT, RTG core: CT)", "values": [{"measurement": "recombinant barcode read abundance (log10)", "value": 0.0725}]}
{"sequence": "GAGTCCTAATGGGTTCTAACCTGTTGCCTAG [GAGTCCTCTAG_LTGcore_AA_RTGcore_CT] (site GAGTCCTCTAG) (LTG core: AA, RTG core: CT)", "values": [{"measurement": "recombinant barcode read abundance (log10)", "value": 0.149}]}
{"sequence": "GAGTCCTAATGGGTTCTAACCTGTTGCCTTT [GAGTCCTCTAG_LTGcore_AA_RTGcore_AA] (site GAGTCCTCTAG) (LTG core: AA, RTG core: AA)", "values": [{"measurement": "recombinant barcode read abundance (log10)", "value": 0.11}]}
{"sequence": "GAGTCCTCTTGGGTTCTAACCTGTTGCCTCA [GAGTCCTCTAG_LTGcore_CT_RTGcore_TG] (site GAGTCCTCTAG) (LTG core: CT, RTG core: TG)", "values": [{"measurement": "recombinant barcode read abundance (log10)", "value": 0.316}]}
{"sequence": "GAGTCCTCTTGGGTTCTAACCTGTTGCCTCG [GAGTCCTCTAG_LTGcore_CT_RTGcore_CG] (site GAGTCCTCTAG) (LTG core: CT, RTG core: CG)", "values": [{"measurement": "recombinant barcode read abundance (log10)", "value": 1.19}]}
{"sequence": "GAGTCCTCTTGGGTTCTAACCTGTTGCCTGT [GAGTCCTCTAG_LTGcore_CT_RTGcore_AC] (site GAGTCCTCTAG) (LTG core: CT, RTG core: AC)", "values": [{"measurement": "recombinant barcode read abundance (log10)", "value": 0.0922}]}
{"sequence": "GAGTCCTGGTGGGTTCTAACCTGTTGCCTAG [GAGTCCTCTAG_LTGcore_GG_RTGcore_CT] (site GAGTCCTCTAG) (LTG core: GG, RTG core: CT)", "values": [{"measurement": "recombinant barcode read abundance (log10)", "value": 0.165}]}
{"sequence": "GAGTCCTGTTGGGTTCTAACCTGTTGCCTAG [GAGTCCTCTAG_LTGcore_GT_RTGcore_CT] (site GAGTCCTCTAG) (LTG core: GT, RTG core: CT)", "values": [{"measurement": "recombinant barcode read abundance (log10)", "value": 0.165}]}
{"sequence": "GAGTCCTTGTGGGTTCTAACCTGTTGCCTAG [GAGTCCTCTAG_LTGcore_TG_RTGcore_CT] (site GAGTCCTCTAG) (LTG core: TG, RTG core: CT)", "values": [{"measurement": "recombinant barcode read abundance (log10)", "value": 0.0483}]}
{"sequence": "GCGCGACAGTGGGTTCTAACCTGTTGCTTCT [GCGCGACCTAA_LTGcore_AG_RTGcore_AG] (site GCGCGACCTAA) (LTG core: AG, RTG core: AG)", "values": [{"measurement": "recombinant barcode read abundance (log10)", "value": 0.313}]}
{"sequence": "GCGCGACATTGGGTTCTAACCTGTTGCTTAG [GCGCGACCTAA_LTGcore_AT_RTGcore_CT] (site GCGCGACCTAA) (LTG core: AT, RTG core: CT)", "values": [{"measurement": "recombinant barcode read abundance (log10)", "value": 0.0488}]}
{"sequence": "GCGCGACATTGGGTTCTAACCTGTTGCTTAT [GCGCGACCTAA_LTGcore_AT_RTGcore_AT] (site GCGCGACCTAA) (LTG core: AT, RTG core: AT)", "values": [{"measurement": "recombinant barcode read abundance (log10)", "value": 0.493}]}
{"sequence": "GCGCGACCTTGGGTTCTAACCTGTTGCTTAG [GCGCGACCTAA_LTGcore_CT_RTGcore_CT] (site GCGCGACCTAA) (LTG core: CT, RTG core: CT)", "values": [{"measurement": "recombinant barcode read abundance (log10)", "value": 0.515}]}
{"sequence": "GCGCGACGATGGGTTCTAACCTGTTGCTTTC [GCGCGACCTAA_LTGcore_GA_RTGcore_GA] (site GCGCGACCTAA) (LTG core: GA, RTG core: GA)", "values": [{"measurement": "recombinant barcode read abundance (log10)", "value": 0.0229}]}
{"sequence": "GCGCGACTGTGGGTTCTAACCTGTTGCTTAG [GCGCGACCTAA_LTGcore_TG_RTGcore_CT] (site GCGCGACCTAA) (LTG core: TG, RTG core: CT)", "values": [{"measurement": "recombinant barcode read abundance (log10)", "value": 0.0192}]}
{"sequence": "GCGCGACTTTGGGTTCTAACCTGTTGCTTAA [GCGCGACCTAA_LTGcore_TT_RTGcore_TT] (site GCGCGACCTAA) (LTG core: TT, RTG core: TT)", "values": [{"measurement": "recombinant barcode read abundance (log10)", "value": 0.108}]}
{"sequence": "GCGGGACCGTGGGTTCTAACCTGTTGCCTCG [GCGGGACCTAG_LTGcore_CG_RTGcore_CG] (site GCGGGACCTAG) (LTG core: CG, RTG core: CG)", "values": [{"measurement": "recombinant barcode read abundance (log10)", "value": 0.248}]}
{"sequence": "GCGGGACCTTGGGTTCTAACCTGTTGCCTAA [GCGGGACCTAG_LTGcore_CT_RTGcore_TT] (site GCGGGACCTAG) (LTG core: CT, RTG core: TT)", "values": [{"measurement": "recombinant barcode read abundance (log10)", "value": 1.15}]}
{"sequence": "GCGGGACCTTGGGTTCTAACCTGTTGCCTAC [GCGGGACCTAG_LTGcore_CT_RTGcore_GT] (site GCGGGACCTAG) (LTG core: CT, RTG core: GT)", "values": [{"measurement": "recombinant barcode read abundance (log10)", "value": 0.997}]}
{"sequence": "GCGGGACCTTGGGTTCTAACCTGTTGCCTAG [GCGGGACCTAG_LTGcore_CT_RTGcore_CT] (site GCGGGACCTAG) (LTG core: CT, RTG core: CT)", "values": [{"measurement": "recombinant barcode read abundance (log10)", "value": 2.64}]}
{"sequence": "GCGGGACCTTGGGTTCTAACCTGTTGCCTAT [GCGGGACCTAG_LTGcore_CT_RTGcore_AT] (site GCGGGACCTAG) (LTG core: CT, RTG core: AT)", "values": [{"measurement": "recombinant barcode read abundance (log10)", "value": 1.68}]}
{"sequence": "GCGGGACCTTGGGTTCTAACCTGTTGCCTCG [GCGGGACCTAG_LTGcore_CT_RTGcore_CG] (site GCGGGACCTAG) (LTG core: CT, RTG core: CG)", "values": [{"measurement": "recombinant barcode read abundance (log10)", "value": 1.7}]}
{"sequence": "GCGGGACCTTGGGTTCTAACCTGTTGCCTGA [GCGGGACCTAG_LTGcore_CT_RTGcore_TC] (site GCGGGACCTAG) (LTG core: CT, RTG core: TC)", "values": [{"measurement": "recombinant barcode read abundance (log10)", "value": 0.0737}]}
{"sequence": "GCGGGACCTTGGGTTCTAACCTGTTGCCTTG [GCGGGACCTAG_LTGcore_CT_RTGcore_CA] (site GCGGGACCTAG) (LTG core: CT, RTG core: CA)", "values": [{"measurement": "recombinant barcode read abundance (log10)", "value": 1.08}]}
{"sequence": "GCGGGACGATGGGTTCTAACCTGTTGCCTAG [GCGGGACCTAG_LTGcore_GA_RTGcore_CT] (site GCGGGACCTAG) (LTG core: GA, RTG core: CT)", "values": [{"measurement": "recombinant barcode read abundance (log10)", "value": 0.171}]}
{"sequence": "GCGGGACTATGGGTTCTAACCTGTTGCCTTA [GCGGGACCTAG_LTGcore_TA_RTGcore_TA] (site GCGGGACCTAG) (LTG core: TA, RTG core: TA)", "values": [{"measurement": "recombinant barcode read abundance (log10)", "value": 0.214}]}
{"sequence": "GCGGGACTGTGGGTTCTAACCTGTTGCCTAG [GCGGGACCTAG_LTGcore_TG_RTGcore_CT] (site GCGGGACCTAG) (LTG core: TG, RTG core: CT)", "values": [{"measurement": "recombinant barcode read abundance (log10)", "value": 0.316}]}
{"sequence": "GCGGGACTTTGGGTTCTAACCTGTTGCCTAA [GCGGGACCTAG_LTGcore_TT_RTGcore_TT] (site GCGGGACCTAG) (LTG core: TT, RTG core: TT)", "values": [{"measurement": "recombinant barcode read abundance (log10)", "value": 0.186}]}
{"sequence": "GGACACCAATGGGTTCTAACCTGTTGCCTAG [GGACACCCTAG_LTGcore_AA_RTGcore_CT] (site GGACACCCTAG) (LTG core: AA, RTG core: CT)", "values": [{"measurement": "recombinant barcode read abundance (log10)", "value": 0.294}]}
{"sequence": "GGACACCACTGGGTTCTAACCTGTTGCCTGT [GGACACCCTAG_LTGcore_AC_RTGcore_AC] (site GGACACCCTAG) (LTG core: AC, RTG core: AC)", "values": [{"measurement": "recombinant barcode read abundance (log10)", "value": 0.54}]}
{"sequence": "GGACACCCATGGGTTCTAACCTGTTGCCTAG [GGACACCCTAG_LTGcore_CA_RTGcore_CT] (site GGACACCCTAG) (LTG core: CA, RTG core: CT)", "values": [{"measurement": "recombinant barcode read abundance (log10)", "value": 0.765}]}
{"sequence": "GGACACCCATGGGTTCTAACCTGTTGCCTTG [GGACACCCTAG_LTGcore_CA_RTGcore_CA] (site GGACACCCTAG) (LTG core: CA, RTG core: CA)", "values": [{"measurement": "recombinant barcode read abundance (log10)", "value": 0.0906}]}
{"sequence": "GGACACCCCTGGGTTCTAACCTGTTGCCTAG [GGACACCCTAG_LTGcore_CC_RTGcore_CT] (site GGACACCCTAG) (LTG core: CC, RTG core: CT)", "values": [{"measurement": "recombinant barcode read abundance (log10)", "value": 1.3}]}
{"sequence": "GGACACCCGTGGGTTCTAACCTGTTGCCTCG [GGACACCCTAG_LTGcore_CG_RTGcore_CG] (site GGACACCCTAG) (LTG core: CG, RTG core: CG)", "values": [{"measurement": "recombinant barcode read abundance (log10)", "value": 0.314}]}
{"sequence": "GGACACCCTTGGGTTCTAACCTGTTGCCTAT [GGACACCCTAG_LTGcore_CT_RTGcore_AT] (site GGACACCCTAG) (LTG core: CT, RTG core: AT)", "values": [{"measurement": "recombinant barcode read abundance (log10)", "value": 1.28}]}
{"sequence": "GGACACCCTTGGGTTCTAACCTGTTGCCTCG [GGACACCCTAG_LTGcore_CT_RTGcore_CG] (site GGACACCCTAG) (LTG core: CT, RTG core: CG)", "values": [{"measurement": "recombinant barcode read abundance (log10)", "value": 0.306}]}
{"sequence": "GGACACCCTTGGGTTCTAACCTGTTGCCTGA [GGACACCCTAG_LTGcore_CT_RTGcore_TC] (site GGACACCCTAG) (LTG core: CT, RTG core: TC)", "values": [{"measurement": "recombinant barcode read abundance (log10)", "value": 1.89}]}
{"sequence": "GGACACCCTTGGGTTCTAACCTGTTGCCTGT [GGACACCCTAG_LTGcore_CT_RTGcore_AC] (site GGACACCCTAG) (LTG core: CT, RTG core: AC)", "values": [{"measurement": "recombinant barcode read abundance (log10)", "value": 0.442}]}
{"sequence": "GGACACCGATGGGTTCTAACCTGTTGCCTAG [GGACACCCTAG_LTGcore_GA_RTGcore_CT] (site GGACACCCTAG) (LTG core: GA, RTG core: CT)", "values": [{"measurement": "recombinant barcode read abundance (log10)", "value": 0.0895}]}
{"sequence": "GGACACCGGTGGGTTCTAACCTGTTGCCTAG [GGACACCCTAG_LTGcore_GG_RTGcore_CT] (site GGACACCCTAG) (LTG core: GG, RTG core: CT)", "values": [{"measurement": "recombinant barcode read abundance (log10)", "value": 0.255}]}
{"sequence": "GGCTCCCAATGGGTTCTAACCTGTTGCGGAG [GGCTCCCCTCC_LTGcore_AA_RTGcore_CT] (site GGCTCCCCTCC) (LTG core: AA, RTG core: CT)", "values": [{"measurement": "recombinant barcode read abundance (log10)", "value": 0}]}
